These results are taken from patent US20010036929A1, “Xrcc3 is required for assembly of Rad51-complexes in vivo” (ARCH Development Corporation., priority 1998, published 2001).

The structures appear in SMILES notation.

In assay [1] the test system is Rad51 foci in CHO irs1SF cells. The experiment in a line: Cisplatin-induced Rad51 focus formation (a-Rad51 immunostaining) in irs1SF cells. Format: cell-based, Chinese hamster. As to the method: (§1) Cisplatin treatment: For dose response studies, the cultures were washed twice in serum-free medium and then incubated for 1 hour in serum-free medium containing varying concentrations of cisplatin (Bristol Laboratories). After the incubation, the dishes were washed three times in serum-free medium and complete medium was added. Cultures were then placed at 37° C. for 3 hours at which time a single-cell suspension was obtained with trypsin/EDTA and the cells were prepared for immunostaining. For time course studies, cell cultures were washed twice in serum-free medium and incubated for one hour in serum-free medium containing 10 μM cisplatin. After incubation, the cells were washed and incubated in complete medium. At the appropriate times the cells were harvested by trypsin treatment and prepared for immunostaining. Immunostaining: Fixed cells were transferred to slides using a Cytospin 2 (Shandon, Pittsburgh, Pa.) centrifuge. Slides were washed twice in Tris-buffered saline (TBS) and incubated for 15 minutes in TBS 1% bovine serum albumin BSA at room temperature. The wash was removed and anti-Rad51 antibody in TBS 1% BSA was applied. The slides were incubated overnight at 4° C. in a humidified chamber. The slides were washed twice in TBS and secondary antibody (fluorescein-conjugated goat anti-rabbit; Molecular Probes, Inc., Eugene, Oreg.) was applied at a 1:1000 dilution in the dark. […]

The next assay deals with CHO cells. Conditions: 1 μM cisplatin for 1 hour; cited from earlier work.
Assay [2] deals with Rad51 foci in CHO CXR3 cells. The experiment in a line: Cisplatin-induced Rad51 focus formation (a-Rad51 immunostaining) in CXR3 cells. Format: cell-based, Chinese hamster. Particulars: foci per nucleus, single focal plane. The procedure: as §1
A further assay deals with XRCC3+ tumors. The experiment in a line: Mouse xenograft tumor model, XRCC3+ tumors, intratumoral cisplatin. Conditions: XRCC3+ tumors in nude mice; 0.1 ml 100 μg/ml cisplatin injected into tumors on days 1-5. The class given is in vivo. The procedure:
(§2) The sensitivity of XRCC3 defective cells to cis-platinum is also reflected in the ability of the drug to cause regression and cure of tumors in a mouse xenograft tumor model. Groups of 12 nude mice were injected in the hind limb with 5X105 XRCC3+ cells or xrcc3− cells. XRCC3+ lines (essentially equivalent to the PXR3 lines described above) and isogenic xrcc3− lines (equivalent to the irs1SF line described above), were injected into nude mice. Tumors were allowed to grow for 2 weeks (volumes of 300-500 mm3). On days 1-5 tumors were injected with 0.1 ml 100 μg/ml cisplatin in PBS or with the same volume of PBS alone. […] Tumor volumes were measured at 3-5 day intervals starting on the first day of treatment. Fractional tumor volumes were calculated as the volume of the tumor on a particular day divided by the volume of the tumor on the day of the first treatment. The fractional tumor volumes in mice injected with XRCC3+ positive cells increased regardless of whether they received cisplatin treatment or the control treatment; the final fractional tumor volume for both the treated and untreated groups was about 5 on average. […] Fractional tumor volume was about 5 on average for the untreated cells and about 0.05 on average for the tumors treated with cisplatin.

Assay [3] relates to Rad51 foci in CHO PXR3 cells. Kind of assay: Cisplatin-induced Rad51 focus formation (a-Rad51 immunostaining) in PXR3 cells. Particulars: foci per nucleus, single focal plane. Format: cell-based, Chinese hamster. As to the method:
as §1

For assay [4], the system named is Rad51 foci in CHO AA8 cells. Kind of assay: Cisplatin-induced Rad51 focus formation (a-Rad51 immunostaining) in AA8 cells. Particulars: for Induction of Rad51 foci: then 3 hours before fixation. The class given is cell-based, Chinese hamster. As to the method: as §1, with “dark. The slides were incubated at room temperature in the dark for 1 hour. The slides were washed twice with TBS and stained with DAPI (0.1 μg/ml in TBS) for 5 minutes. The slides were dried and coverslips mounted with Vectashield mounting medium (Vector Laboratories Inc., Burlingame, Calif.). Microscopy: Immunostained samples were examined via standard epifluorescence microscopy using a Ziess Photoscope III through a 100X objective. Digital images were obtained with a CCD camera (Imagepoint, Photometrics Inc., Tucson, Ariz.). A single focal plane was documented for each nucleus. Therefore, the numbers presented are less than the total number of foci per nucleus.” for “dark.”

A further assay has as its system xrcc3− tumors. Kind of assay: Mouse xenograft tumor model, xrcc3- tumors, intratumoral cisplatin. Particulars: xrcc3− tumors in nude mice; 0.1 ml 100 μg/ml cisplatin injected into tumors on days 1-5. Format: in vivo. As to the method: as §2

In the case of `N.N.[Cl][Pt][Cl]` [cisplatin], in assay [1], the “Induction of Rad51 foci by cisplatin treatment” value is reported as “no induction of foci was detected”. Further, the Cells that survive with CHO cells is given as 50-80%. Further, the “Rad51 foci induced by cisplatin treatment” value in assay [2] is listed as “up to 30 foci”; in assay [3], “up to 30 foci”; in assay [4] (AA8 cells, foci per nucleus, single focal plane), “up to 30 foci”. For the same compound, the “Final fractional tumor volume (volume on day / volume on day of first treatment), average” value with XRCC3+ tumors is reported as “about 5”. For the same compound, the “Induction of Rad51 foci” value in assay [4] (1 μM cisplatin for 1 hour) is “Significant induction of foci”; in assay [4] (10 μM cisplatin for 1 hour), “Near maximum induction of foci”. Also, the “Fractional tumor volume (volume on day / volume on day of first treatment), average” value in the assay with xrcc3− tumors was “about 0.05”.
